# Measurements taken from BindingDB's records for PubMed 38503166 (University of Paris).
# Numbered stars: 1 amine (or outer) side, 2 acyl side, 3 side chain; on linkers, the order of the positions; unused ones are H or OH. Square brackets hold non-standard residues; d marks the D form. Peptide text beside a SMILES is read from it. * marks the point of attachment. Ala(1H-tetrazol-5-yl) = N[C@@H](Cc1nnn[nH]1)C(=O)O; Gly(cPent) = N[C@H](C(=O)O)C1CCCC1; X1 = C[C@H](N[*:1])C(=O)C(=O)[*:2]; Chg = N[C@H](C(=O)O)C1CCCCC1; OAll = C=CCO*
# Molecular target: Subtilisin-like protease 1 (Plasmodium vivax)
# Assay: Inhibition of Plasmodium vivax SUB1 catalytic domain
row,SMILES,IC50 [nM]
1,C=CCOC(=O)CC[C@H](NC(=O)[C@H](CC(=O)O)NC(=O)C(=O)[C@H](C)NC(=O)[C@H](C)NC(=O)[C@@H](NC(=O)[C@@H](NC(C)=O)[C@@H](C)CC)[C@@H](C)O)C(N)=O (Ac-ITA[X1]DE(OAll)-NH2),100
2,C=CCOC(=O)CC[C@H](NC(=O)[C@H](CC(=O)O)NC(=O)C(=O)[C@H](C)NC(=O)[C@H](C)NC(=O)[C@@H](NC(=O)[C@@H](NC(C)=O)C1CCCCC1)[C@@H](C)O)C(N)=O (Ac-[Chg]TA[X1]DE(OAll)-NH2),150
3,CC(=O)N[C@H](C(=O)N[C@H](C(=O)N[C@@H](C)C(=O)N[C@@H](C)C(=O)C(=O)N[C@@H](CC(=O)O)C(N)=O)[C@@H](C)O)C1CCCC1 (Ac-[Gly(cPent)]TA[X1]D-NH2),150
4,C=CCOC(=O)CC[C@H](NC(=O)[C@H](CC(=O)O)NC(=O)C(=O)[C@H](C)NC(=O)[C@H](C)NC(=O)[C@@H](NC(=O)[C@@H](NC(C)=O)C1CCCC1)[C@@H](C)O)C(N)=O,70
5,C=CCOC(=O)CC[C@H](NC(=O)[C@H](Cc1nnn[nH]1)NC(=O)C(=O)[C@H](C)NC(=O)[C@H](C)NC(=O)[C@@H](NC(=O)[C@@H](NC(C)=O)[C@@H](C)CC)[C@@H](C)O)C(N)=O (Ac-ITA[X1][Ala(1H-tetrazol-5-yl)]E(OAll)-NH2),2220
